Results: article PMC6973020, “Quinoline‐Conjugated Ruthenacarboranes: Toward Hybrid Drugs with a Dual Mode of Action” (Chemmedchem, 2019)

Key:
[1] = Solubility in organic solvents (qualitative); type: physicochemical
[2] = system: MCF‐7 cells; experiment: AO staining (acidic vacuoles, autophagy), MCF‐7; type: cell-based, human; conditions: MCF‐7, 20 μM, 72 h
Experimental: Flow cytometry. For gaining better insights into the mechanisms of action of the ruthenium complexes, MCF‐7 and LN229 cells incubated with an IC50 dose of 3 or 4, were analyzed via flow cytometry. Several staining protocols were carried out in parallel, in independent experiments: i) AnnV/PI for the detection of apoptotic cell death, ii) AO for the detection of acidic vacuoles, iii) ApoStat for checking caspase activation, iv) CFSE for detecting interference with cellular proliferation, and v) DAPI for the detection of morphological signs of apoptosis. Untreated cells or cells treated only with BSA (control) were also measured, as reference for BSA‐free and BSA‐containing drug formulations, respectively. […] Channels FL1 (green emission), FL2 (orange emission) and/or FL3 (dark red emission) were used for fluorescence detection, according to the specific staining agent. Sideward Scatter (SSC) for MCF‐7 cells treated with 4 or BSA−4 was also analyzed, with respect to the control, for detection of shifts of cell granularity. […]
FCS, 2 mM L‐glutamine, 0.01% sodium pyruvate and antibiotics, at 37 °C in a humidified atmosphere with 5% CO2. […] Cells were counted and seeded in 96‐well plates and incubated overnight, as described above. […]
Staining Protocols for Flow Cytometric Analysis. […] Finally, cells were washed in PBS, resuspended in PBS (or AnnV‐binding buffer for AnnV/PI), and analysed. […]

[3] = system: LN229 human glioblastoma; experiment: Crystal violet (CV) cell viability assay, LN229; type: cell-based; conditions: CV assay, 72 h; read-out: IC50 LN229
Description: Thus, care must be taken when comparing their biological activities with those of our previous studies, even with the same cell line, because the covalent vs. non‐covalent combination of drugs might imply different mechanisms of action in the cell.44 Here, we studied the in vitro activity of ruthenacarborane 3, i. e. free acid, and its 8‐hydroxyquinolyl (4) and 4‐{(7‐chloroquinolin‐4‐yl)oxy}butanol‐1‐yl (5) esters, against a panel of cancer cell lines (B16 mouse melanoma, A375 human skin melanoma, MCF‐7 human breast adenocarcinoma, LN229 human glioblastoma, U251 human glioma). Human fibroblast cell line MRC‐5, murine microglial cell line BV‐2 as well as peritoneal exudate cells (Mph), were chosen as models for non‐malignant cells. […] On the other side, we wanted to assess the reproducibility of the viability data, under either controlled (with BSA) or uncontrolled (without BSA) conditions, in two sets of independent assays. […] Cells were exposed to 3–5 for 72 h, after which cell viability was determined via 3‐(4,5‐dimethylthiazol‐2‐yl)‐2,5‐diphenyltetrazolium bromide (MTT) and crystal violet (CV) assays, in parallel (Table 2). Cisplatin was also tested as reference.
Preparation of drug solutions. […] Stock solution of cisplatin was prepared in DMF (10 mM) immediately before use. A stock solution of BSA in PBS was prepared at 1.28 mM concentration, and stored at 4 °C in the dark. […] Alternatively, 3 or 4 (DMSO stock solution) were added to the BSA solution in PBS, always with a 10 : 1 molar ratio of BSA to ruthenacarborane. The BSA−ruthenacarborane solutions were incubated 0.5–1 h at room temperature, then diluted with cell culture medium to the desired final concentrations. Final concentrations of 3 and 4 were the same as for the BSA‐free formulation. Final DMSO was 0.02–0.5 vol %.
Colorimetric assays for cellular viability. […] For counting the number of attached (viable) cells, cells were fixed with 4 % (w/v) paraformaldehyde for 10 min at room temperature, and subsequently stained for 15 min with […] crystal violet (CV) solution. Cells were then washed with tap water, dried in air, and the CV dye was dissolved in 33 % (w/v) acetic acid solution. For the detection of mitochondrial respiration, cells were cultivated in MTT staining solution (0.5 mg mL^−1) for approximately 1 h. The dye was then discarded, and the formed formazan (purple) was dissolved in DMSO. The absorbance was measured with an automated microplate reader at λmax 540 nm, with the reference λmax 670 nm. Untreated cells or cells treated only with BSA (control) were also measured, as reference for BSA‐free and BSA‐containing drug formulations, respectively. For determination of the role of autophagy specific inhibitors, CQ or 3‐MA, were applied at a concentration of 20 μM and 0.5 mM, respectively, and the cells were stained with CV dye. Cell viability is expressed as percentage (%) relative to control (untreated cultures).58 Experiments were run in three independent replicates. […] Non‐linear regression analyses of the obtained results was done using GraphPad Prism software to calculate IC50 values.
mouse microglial cell line BV‐2 was a kind gift from Dr. Irena Lavrnja, Institute for Biological Research
“Siniša Stanković” (University of Belgrade).

Substance	solubility in organic solvents (in words) [1]	autophagy (AO staining) [2]	IC50 [3] [µM]
closo ‐[3‐(η^6‐p‐Cymene)‐1‐(quinolin‐8‐yl‐acetate)‐3,1,2‐RuC2B9H10] [Compound 4]	soluble in dichloromethane, chloroform, acetone and DMSO	suppressed autophagy	33.4 ± 3.5
closo‐ [Compound 3, closo‐ [3‐(η^6‐p‐Cymene)‐1‐(CH2COOH)‐3,1,2‐RuC2B9H10]]	soluble in acetone, THF, acetonitrile and DMSO, moderately soluble in chloroform and dichloromethane	strongly amplified autophagic processes	80 ± 7.7
